PubChem BioAssay AID248 (DTP/NCI, 2004)
“And” between values parts separate entries of the source, which are not always exact repeats. Identical values can stand only once. Inconclusive results and toxic doses are left out. Rule as the data show it: active = T/C of 150% or more; inactive = T/C below 125%.

Tested on: L1210 leukemia ip in BDF1 mice, survival T/C
Assay: NCI In Vivo Anticancer Drug Screen. Data for tumor model L1210 Leukemia (intraperitoneal) in B6D2F1 (BDF1) mice
Conditions: endpoint: mean survival time, higher = longer survival
In short: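 In this screen, tumor-bearing mice given compound are compared to those given vehicle, and their survival values are reported as a treated-to-control quotient.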

[1] = dose: 100.0 mg/kg/injection, schedule: Q04DX002 (ip), vehicle: Klucel (hydroxypropylcellulose) (HPC)
[2] = dose: 100.0 mg/kg/injection, schedule: Q01DX001 (ip), vehicle: saline with Tween-80
[3] = dose: 200.0 mg/kg/injection, schedule: Q01DX001 (ip), vehicle: saline with Tween-80
[4] = dose: 25.0 mg/kg/injection, schedule: Q04DX003 (ip), vehicle: saline
[5] = dose: 50.0 mg/kg/injection, schedule: Q01DX009 (ip), vehicle: saline
[6] = dose: 100.0 mg/kg/injection, schedule: Q01DX009 (ip), vehicle: saline
[7] = dose: 100.0 mg/kg/injection, schedule: Q04DX003 (ip), vehicle: saline
[8] = dose: 200.0 mg/kg/injection, schedule: Q01DX009 (ip), vehicle: saline
[9] = dose: 200.0 mg/kg/injection, schedule: Q04DX003 (ip), vehicle: saline
[10] = dose: 400.0 mg/kg/injection, schedule: Q01DX001 (ip), vehicle: saline with Tween-80
[11] = dose: 100.0 mg/kg/injection, schedule: Q04DX003 (ip), vehicle: Klucel (hydroxypropylcellulose) (HPC)
[12] = dose: 200.0 mg/kg/injection, schedule: Q04DX003 (ip), vehicle: Klucel (hydroxypropylcellulose) (HPC)
[13] = dose: 400.0 mg/kg/injection, schedule: Q04DX003 (ip), vehicle: Klucel (hydroxypropylcellulose) (HPC)

Measured: T/C

CCCS(=O)(=O)N(CC)CC
inactive: dose: 100.0 mg/kg/injection, schedule: Q04DX002 (ip), vehicle: saline with Tween-80 97 % of control | dose: 200.0 mg/kg/injection, schedule: Q04DX002 (ip), vehicle: saline with Tween-80 101 % of control | dose: 400.0 mg/kg/injection, schedule: Q04DX002 (ip), vehicle: saline with Tween-80 87 % of control

O=C1CCCCc2nn(c3ccccc23)C(=O)CCCCc2nn1c1ccccc21
inactive: dose: 25.0 mg/kg/injection, schedule: Q04DX002 (ip), vehicle: Klucel (hydroxypropylcellulose) (HPC) 90 % of control | dose: 50.0 mg/kg/injection, schedule: Q04DX002 (ip), vehicle: Klucel (hydroxypropylcellulose) (HPC) 97 % of control | [1] 93 % of control

Nc1cccc(CCCCc2ccccc2)c1
inactive: [2] 102 % of control | [3] 100 % of control

CC(N)(Cc1ccc(O)c(O)c1)C(=O)O (configuration not stated)
inactive: dose: 25.0 mg/kg/injection, schedule: Q01DX009 (ip), vehicle: saline 109 % of control | [4] 103 % of control | [5] 101 % of control | dose: 50.0 mg/kg/injection, schedule: Q04DX003 (ip), vehicle: saline 95 % of control | [6] 105 % of control | [7] 103 % of control | [8] 111 % of control | [9] 106 % of control | dose: 400.0 mg/kg/injection, schedule: Q01DX009 (ip), vehicle: saline 117 % of control | dose: 400.0 mg/kg/injection, schedule: Q04DX003 (ip), vehicle: saline 103 % of control

OC1CCC2CC12 (configuration not stated)
inactive: dose: 50.0 mg/kg/injection, schedule: Q01DX001 (ip), vehicle: saline with Tween-80 98 % of control | [2] 102 % of control and 106 % of control | [3] 107 % of control and 95 % of control | [10] 93 % of control

Cc1ccc(C)c(NC(=O)N2CCN(C)CC2)c1
inactive: [6] 97 % of control | [8] 100 % of control

CN(C)CCCN1c2ccccc2Sc2ccc(F)cc21
inactive: dose: 3.12 mg/kg/injection, schedule: Q04DX003 (ip), vehicle: saline 94 % of control | dose: 6.25 mg/kg/injection, schedule: Q04DX003 (ip), vehicle: saline 97 % of control | dose: 12.5 mg/kg/injection, schedule: Q04DX003 (ip), vehicle: saline 108 % of control | [4] 111 % of control

O=C1C(=O)c2ccccc2C(O)=C1CC=C1CCCCC1
inactive: dose: 100.0 mg/kg/injection, schedule: Q01DX001 (ip), vehicle: water 100 % of control | dose: 100.0 mg/kg/injection, schedule: Q01DX009 (ip), vehicle: water 103 % of control | dose: 200.0 mg/kg/injection, schedule: Q01DX009 (ip), vehicle: water 98 % of control | dose: 400.0 mg/kg/injection, schedule: Q01DX001 (ip), vehicle: water 108 % of control

O=C(O)C1CCCCC1C(=O)Nc1ccc(Br)cc1 (configuration not stated)
inactive: [1] 100 % of control | dose: 200.0 mg/kg/injection, schedule: Q04DX002 (ip), vehicle: Klucel (hydroxypropylcellulose) (HPC) 100 % of control | dose: 400.0 mg/kg/injection, schedule: Q04DX002 (ip), vehicle: Klucel (hydroxypropylcellulose) (HPC) 118 % of control

Cc1cc(Cc2cc(C)c(O)c(C(C)(C)C)c2)cc(C(C)(C)C)c1O
inactive: dose: 50.0 mg/kg/injection, schedule: Q04DX002 (ip), vehicle: other 93 % of control | dose: 100.0 mg/kg/injection, schedule: Q04DX002 (ip), vehicle: other 87 % of control | dose: 200.0 mg/kg/injection, schedule: Q04DX002 (ip), vehicle: other 90 % of control

CCN(CC)CCNCc1cc(Cl)c2cccnc2c1O
inactive: dose: 6.25 mg/kg/injection, schedule: Q04DX002 (ip), vehicle: saline 90 % of control | dose: 12.5 mg/kg/injection, schedule: Q04DX002 (ip), vehicle: saline 97 % of control | dose: 25.0 mg/kg/injection, schedule: Q04DX002 (ip), vehicle: saline 94 % of control

O=C(O)[C@H]1CCCC[C@H]1C(=O)O
inactive: dose: 50.0 mg/kg/injection, schedule: Q04DX003 (ip), vehicle: Klucel (hydroxypropylcellulose) (HPC) 98 % of control | [11] 95 % of control | [12] 103 % of control and 106 % of control | [13] 100 % of control

CC(=O)Nc1ccc(NC(=S)NC(=O)COc2ccccc2)cc1
inactive: dose: 50.0 mg/kg/injection, schedule: Q04DX002 (ip), vehicle: saline with Tween-80 102 % of control and 105 % of control | [2] 107 % of control | dose: 100.0 mg/kg/injection, schedule: Q01DX009 (ip), vehicle: saline with Tween-80 102 % of control and 91 % of control | dose: 100.0 mg/kg/injection, schedule: Q04DX003 (ip), vehicle: saline with Tween-80 97 % of control | [3] 98 % of control | dose: 200.0 mg/kg/injection, schedule: Q01DX009 (ip), vehicle: saline with Tween-80 95 % of control and 98 % of control | dose: 200.0 mg/kg/injection, schedule: Q04DX003 (ip), vehicle: saline with Tween-80 90 % of control | [10] 97 % of control | dose: 400.0 mg/kg/injection, schedule: Q01DX009 (ip), vehicle: saline with Tween-80 101 % of control and 87 % of control | dose: 400.0 mg/kg/injection, schedule: Q04DX003 (ip), vehicle: saline with Tween-80 95 % of control

O=C1c2ccccc2-c2nc3cncnc3nc21 (tested in a mixture with another compound)
inactive: [5] 98 % of control | [6] 101 % of control | [7] 95 % of control | [8] 101 % of control | [9] 101 % of control

COc1ccccc1C(=O)C(O)c1ccccc1OC (configuration not stated)
inactive: dose: 50.0 mg/kg/injection, schedule: Q01DX009 (ip), vehicle: Klucel (hydroxypropylcellulose) (HPC) 105 % of control | dose: 100.0 mg/kg/injection, schedule: Q01DX009 (ip), vehicle: Klucel (hydroxypropylcellulose) (HPC) 101 % of control | [11] 94 % of control | dose: 200.0 mg/kg/injection, schedule: Q01DX009 (ip), vehicle: Klucel (hydroxypropylcellulose) (HPC) 96 % of control | [12] 96 % of control | dose: 400.0 mg/kg/injection, schedule: Q01DX009 (ip), vehicle: Klucel (hydroxypropylcellulose) (HPC) 101 % of control | [13] 93 % of control
